{
  "source": "ChEMBL document CHEMBL1201862",
  "about": "“PubChem BioAssay data set” (2004)",
  "assay_in_all_cases": "NCI tumour cell line growth inhibition, 48 h",
  "key": {"[1]": {"test_system": "RXF 393"}, "[2]": {"test_system": "UO-31"}, "[3]": {"test_system": "SNB-78"}, "[4]": {"test_system": "A498"}, "[5]": {"test_system": "SF-268"}, "[6]": {"test_system": "NCI-H522"}, "[7]": {"test_system": "SK-MEL-28"}, "[8]": {"test_system": "EKVX"}, "[9]": {"test_system": "MOLT-4"}, "[10]": {"test_system": "OVCAR-4"}, "[11]": {"test_system": "BT-549"}, "[12]": {"test_system": "LOX IMVI"}, "[13]": {"test_system": "Malme-3M"}, "[14]": {"test_system": "HCT-15"}, "[15]": {"test_system": "NCI-H460"}, "[16]": {"test_system": "ACHN"}, "[17]": {"test_system": "MDA-MB-435"}, "[18]": {"test_system": "786-0"}, "[19]": {"test_system": "HOP-18"}, "[20]": {"test_system": "TK-10"}, "[21]": {"test_system": "A549"}, "[22]": {"test_system": "NCI-H226"}, "[23]": {"test_system": "HL-60"}, "[24]": {"test_system": "M19-MEL"}, "[25]": {"test_system": "OVCAR-8"}, "[26]": {"test_system": "COLO 205"}, "[27]": {"test_system": "HT-29"}, "[28]": {"test_system": "NCI/ADR-RES"}, "[29]": {"test_system": "DLD-1"}, "[30]": {"test_system": "LXFL 529"}, "[31]": {"test_system": "T47D"}, "[32]": {"test_system": "UACC-257"}, "[33]": {"test_system": "MCF7"}, "[34]": {"test_system": "SN12C"}, "[35]": {"test_system": "SK-MEL-2"}, "[36]": {"test_system": "K562"}, "[37]": {"test_system": "RPMI-8226"}, "[38]": {"test_system": "OVCAR-3"}, "[39]": {"test_system": "KM12"}, "[40]": {"test_system": "UACC-62"}, "[41]": {"test_system": "SNB-19"}, "[42]": {"test_system": "OVCAR-5"}, "[43]": {"test_system": "HCC 2998"}, "[44]": {"test_system": "SK-OV-3"}, "[45]": {"test_system": "KM-20L2"}, "[46]": {"test_system": "SF-295"}, "[47]": {"test_system": "SW-620"}, "[48]": {"test_system": "HOP-92"}, "[49]": {"test_system": "XF498"}, "[50]": {"test_system": "IGROV-1"}, "[51]": {"test_system": "Hs-578T"}, "[52]": {"test_system": "MDA-MB-231"}, "[53]": {"test_system": "NCI-H23"}, "[54]": {"test_system": "SK-MEL-5"}, "[55]": {"test_system": "CAKI-1"}, "[56]": {"test_system": "SR"}, "[57]": {"test_system": "RXF 631"}, "[58]": {"test_system": "M14"}, "[59]": {"test_system": "MDA-N"}, "[60]": {"test_system": "CCRF-CEM"}, "[61]": {"test_system": "DU-145"}, "[62]": {"test_system": "HOP-62"}, "[63]": {"test_system": "U-251"}, "[64]": {"test_system": "SNB-75"}, "[65]": {"test_system": "HCT-116"}, "[66]": {"test_system": "PC-3"}},
  "note": "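Compound exposure: 48 hours, 5 concentrations, 96-well plates. GI50: concentration for 50% inhibition of growth.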 Calls of active or inactive are those of the source. Rule as the data show it: active = GI50 up to about 1.1 µM and inactive = higher.",
  "data": [
    {"smiles": "COC1/C=C\\C=C(/C)C(=O)NC2=CC(=O)C(N)=C(CC(C)CC(OC)C(O)C(C)C=C(C)C1OC(N)=O)C2=O", "note": "(stereo unspecified)", "values": [
      {"measurement": "GI50", "setting": "[1]", "result": "2930 nM (inactive)"},
      {"measurement": "GI50", "setting": "[2]", "result": "184 nM (active)"},
      {"measurement": "GI50", "setting": "[3]", "result": "3550 nM (inactive)"},
      {"measurement": "GI50", "setting": "[4]", "result": "19100 nM (inactive)"},
      {"measurement": "GI50", "setting": "[5]", "result": "419 nM (active)"},
      {"measurement": "GI50", "setting": "[6]", "result": "23.4 nM (active)"},
      {"measurement": "GI50", "setting": "[7]", "result": "< 26.6 nM (active)"},
      {"measurement": "GI50", "setting": "[8]", "result": "3970 nM (inactive)"},
      {"measurement": "GI50", "setting": "[9]", "result": "150 nM (active)"},
      {"measurement": "GI50", "setting": "[10]", "result": "4070 nM (inactive)"},
      {"measurement": "GI50", "setting": "[11]", "result": "11800 nM (inactive)"},
      {"measurement": "GI50", "setting": "[12]", "result": "19.3 nM (active)"},
      {"measurement": "GI50", "setting": "[13]", "result": "23.1 nM (active)"},
      {"measurement": "GI50", "setting": "[14]", "result": 333, "unit": "nM"},
      {"measurement": "GI50", "setting": "[15]", "result": "< 10 nM (active)"},
      {"measurement": "GI50", "setting": "[16]", "result": "93.5 nM (active)"},
      {"measurement": "GI50", "setting": "[17]", "result": "< 19.1 nM (active)"},
      {"measurement": "GI50", "setting": "[18]", "result": "368 nM (active)"},
      {"measurement": "GI50", "setting": "[19]", "result": "< 10 nM (active)"},
      {"measurement": "GI50", "setting": "[20]", "result": "321 nM (active)"},
      {"measurement": "GI50", "setting": "[21]", "result": "21.6 nM (active)"},
      {"measurement": "GI50", "setting": "[22]", "result": "5870 nM (inactive)"},
      {"measurement": "GI50", "setting": "[23]", "result": "58.5 nM (active)"},
      {"measurement": "GI50", "setting": "[24]", "result": "< 10 nM (active)"},
      {"measurement": "GI50", "setting": "[25]", "result": "< 20.3 nM (active)"},
      {"measurement": "GI50", "setting": "[26]", "result": "< 10 nM (active)"},
      {"measurement": "GI50", "setting": "[27]", "result": "< 10 nM (active)"},
      {"measurement": "GI50", "setting": "[28]", "result": "28700 nM (inactive)"},
      {"measurement": "GI50", "setting": "[29]", "result": "68.9 nM (active)"},
      {"measurement": "GI50", "setting": "[30]", "result": "46.2 nM (active)"},
      {"measurement": "GI50", "setting": "[31]", "result": "653 nM (active)"},
      {"measurement": "GI50", "setting": "[32]", "result": "30 nM (active)"},
      {"measurement": "GI50", "setting": "[33]", "result": "41.6 nM (active)"},
      {"measurement": "GI50", "setting": "[34]", "result": "17 nM (active)"},
      {"measurement": "GI50", "setting": "[35]", "result": "< 10 nM (active)"},
      {"measurement": "GI50", "setting": "[36]", "result": "20.4 nM (active)"},
      {"measurement": "GI50", "setting": "[37]", "result": "195 nM (active)"},
      {"measurement": "GI50", "setting": "[38]", "result": "68.1 nM (active)"},
      {"measurement": "GI50", "setting": "[39]", "result": "24.4 nM (active)"},
      {"measurement": "GI50", "setting": "[40]", "result": "24.7 nM (active)"},
      {"measurement": "GI50", "setting": "[41]", "result": "42.4 nM (active)"},
      {"measurement": "GI50", "setting": "[42]", "result": "375 nM (active)"},
      {"measurement": "GI50", "setting": "[43]", "result": "26.8 nM (active)"},
      {"measurement": "GI50", "setting": "[44]", "result": "< 12.3 nM (active)"},
      {"measurement": "GI50", "setting": "[45]", "result": "< 10 nM (active)"},
      {"measurement": "GI50", "setting": "[46]", "result": "29.5 nM (active)"},
      {"measurement": "GI50", "setting": "[47]", "result": "< 13.3 nM (active)"},
      {"measurement": "GI50", "setting": "[48]", "result": "15.6 nM (active)"},
      {"measurement": "GI50", "setting": "[49]", "result": "56.5 nM (active)"},
      {"measurement": "GI50", "setting": "[50]", "result": "31.8 nM (active)"},
      {"measurement": "GI50", "setting": "[51]", "result": "< 10 nM (active)"},
      {"measurement": "GI50", "setting": "[52]", "result": "< 18.7 nM (active)"},
      {"measurement": "GI50", "setting": "[53]", "result": "< 21.2 nM (active)"},
      {"measurement": "GI50", "setting": "[54]", "result": "42 nM (active)"},
      {"measurement": "GI50", "setting": "[55]", "result": "977 nM (active)"},
      {"measurement": "GI50", "setting": "[56]", "result": "16.1 nM (active)"},
      {"measurement": "GI50", "setting": "[57]", "result": "303 nM (active)"},
      {"measurement": "GI50", "setting": "[58]", "result": "20.4 nM (active)"},
      {"measurement": "GI50", "setting": "[59]", "result": "< 17.1 nM (active)"},
      {"measurement": "GI50", "setting": "[60]", "result": "178 nM (active)"},
      {"measurement": "GI50", "setting": "[61]", "result": "< 19.9 nM (active)"},
      {"measurement": "GI50", "setting": "[62]", "result": "< 19.9 nM (active)"},
      {"measurement": "GI50", "setting": "[63]", "result": "< 10 nM (active)"},
      {"measurement": "GI50", "setting": "[64]", "result": "< 13.7 nM (active)"},
      {"measurement": "GI50", "setting": "[65]", "result": "23.3 nM (active)"},
      {"measurement": "GI50", "setting": "[66]", "result": "293 nM (active)"}
    ]}
  ]
}
